Data reported in BigSolDB 2.1.

Nc1cccnc1
solubility (mole fraction)
Conditions	288.15 K	293.15 K	298.15 K	303.15 K	308.15 K	313.15 K	318.15 K	323.15 K
in acetone	0.155	0.194	0.244	0.305	0.38	0.468	0.565	0.668
in n-butyl acetate	0.432	0.481	0.537	0.591	0.65	0.712	0.77	0.835
